Measurements from PMC10545747, “Development of cyclopeptide inhibitors of cGAS targeting protein-DNA interaction and phase separation” (Nature Communications, 2023).
Where “and” joins values, the source holds several entries; their conditions need not be identical. Identical values can stand only once. Square brackets hold non-standard residues; d marks the D form. Peptide text beside a SMILES is read from it.

What was measured:
[1] = tested on: THP1 cells stimulated with poly (I: C) (TLR3 and RIG-I/MDA-5 pathways); test: qPCR of IFNB1 mRNA in THP1 cells stimulated by poly (I: C); type: cell-based, human
Description: We next evaluated the inhibitory effect of XQ2 against cGAS in murine fibroblast L929 cells, macrophage RAW264.7 cells and primary bone marrow-derived macrophages (BMDMs) from C57BL/6 mice.
(§1) The indicated cells were stimulated with either ISD (Sangon Biotech), HSV-1 (Provided by Dr. Zhengfan Jiang), HSV60mer (Sangon Biotech), SATE-cddA[70], 2’3’-cGAMP (Invivogen, Cat# tlrl-nacga23-1), ADU-S100 (MedChemExpress, Cat# HY-12885A) or Poly(I:C) (Invivogen, Cat# tlrl-pic) after XQ2 or XQ2B treatment. Total RNA was isolated from indicated cells that incubated with the drugs for indicated time or mice tissues by using NucleoZOL reagent (MACHEREY-NAGEL) according to the manufacturer’s instructions. The quantifications of mRNA levels were carried out by real-time PCR using a PerfectStart® Uni RT&qPCR Kit (TransGen Biotech) on the QuantStudio 5 qPCR machine (Applied Biosystems). Samples were carried out in triplicate and the target CT values were normalized to GAPDH CT values. Primers of qPCR used in this study can be found in Supplementary Table S2.

HSV-1 in THP1 cells = test: HSV-1(UL5) mRNA by qPCR (virus infection of cells); type: cell-based, herpes simplex virus-1; design: key to HSV-1(UL5) mRNA, qPCR, Fig. 5d / HSV-1(UL5) mRNA (Fig. S8e): relative mRNA level, target CT normalized to GAPDH CT
Method: as §1

[2] = tested on: dsDNA-stimulated THP1 cells; test: qPCR of IFNB1/CXCL10/IL6 mRNA in THP1 cells stimulated by dsDNA (ISD, HSV60mer); type: cell-based, human; conditions: for IFNB1 mRNA level (Fig. S7c): XQ2B; for Relative mRNA level CXCL10 (Fig. S7d) / Relative mRNA level IFNB1 (Fig. S7d) / Relative mRNA level IL6 (Fig. S7d): ISD +
Description: To screen direct cGAS inhibitors targeting protein-DNA interface from our developed focused library of macrocyclic peptides, we applied an RNA-based fluorescent biosensor for 2’,3’-cGAMP to detect cGAS activity in vitro (Supplementary Fig. 1a)[49]. The formation of 2’,3’-cGAMP from ATP and GTP was catalyzed by recombinant human cGAS enzyme (hcGAS-ΔN, residues 147–522, Supplementary Fig. 1b) in the presence of ISD (interferon stimulatory DNA, a 45-bp dsDNA), which was readily quantified by the RNA-based fluorescent biosensor and was further confirmed by ion exchange chromatography (Supplementary Fig. 1c). […] Subsequently, a total of 90 macrocyclic peptides were screened at a concentration of 20 μM (Fig. 1a and Supplementary Fig. 1e), and 4 hits (XQ2, XQ8, XQ19, and XQ46) were obtained for further testing at a cut-off of 40% inhibition (Supplementary Table 1). To evaluate the inhibitory effect of the hits against cGAS in cells, we employed real-time quantitative PCR (qPCR) to examine mRNA levels of IFNΒ1 in THP1 cells. The reported cGAS inhibitor RU.521 was used as the positive control, and the non-active peptide XQ28 in the screening assay was used as the negative control. […] The inhibition of cGAS by these hits was further confirmed in the reporter cell line THP1-Lucia ISG (Invivogen) that expresses secreted luciferase induced by an IRF3-inducible ISG54 promoter (Fig. 1c). The discrepancy between the inhibitory effect of the hits in protein and cellular assays may be attributed to their different cellular permeability.
as §1

[3] = tested on: macrophage RAW264.7 cells; test: qPCR of Ifnb1/Cxcl10/Il6 mRNA in RAW264.7 cells (ISD or HSV-1); type: cell-based, mouse; design: key to Ifnb1 mRNA (Fig. S2c) / Cxcl10 mRNA (Fig. S2c) / Ifnb1 mRNA (Fig. S2d) / Cxcl10 mRNA (Fig. S2d) / Ifnb1 mRNA (Fig. S7g) / Cxcl10 mRNA (Fig. S7g) / Il6 mRNA (Fig. S7g): mRNA level normalized to GAPDH (relative expression)
Method: as §1, with “S2. […]” for “S2.”
(c) L929, p = 0.0005 (Ifnb1),
BMDMs, p = 0.0001 (Ifnb1), p < 0.0001 (Cxcl10).
representative of three independent experiments in (a-g). (Data are presented as mean ± SD, n = 3 independent
Source data are provided as a Source Data file.

## CC(C)C[C@@H]1NC(=O)[C@H](CCCNC(=N)N)NC(=O)[C@H](C(C)C)NC(=O)[C@@H]2CCCN2C(=O)[C@@H](Cc2ccccc2)NC(=O)[C@H](CC(C)C)NC(=O)[C@H](CCCNC(=N)N)NC(=O)[C@H]([C@@H](C)O)NC(=O)[C@H](C)NC(=O)[C@@H](Cc2ccccc2)NC1=O [XQ2B] (cyclo([dF]ATRL[dF]PVRL))
[1]; Poly(I:C), XQ2B
  IFNB1 mRNA level (Fig. S7c): 1527.76 and 1720.01 and 1878.29
[1]; THP1, 10 μM
  poly (I: C)-induced IFNB1 expression: no significant effect on signaling induced by STING agonists or TLR3 agonist such as poly (I: C)
HSV-1 in THP1 cells; 10 μM
  HSV-1 infection of THP1 cells, HSV1(UL5) mRNA: facilitated HSV-1 infection
HSV-1 in THP1 cells; HSV-1(1×104) 24h
  HSV-1(UL5) mRNA (Fig. S8e): 2.313 and 2.598 and 2.002
HSV-1 in THP1 cells; HSV-1(2×104) 24h
  HSV-1(UL5) mRNA (Fig. S8e): 4.745 and 4.808 and 4.905
[2]; HSV60mer
  IFNB1 mRNA level (Fig. S7c): 40.2098 and 37.8755 and 37.7329
[2]; XQ2B 0.63 μM
  Relative mRNA level CXCL10 (Fig. S7d): 75.7262 and 111.48 and 109.732
  Relative mRNA level IFNB1 (Fig. S7d): 143.341 and 159.417 and 146.307
  Relative mRNA level IL6 (Fig. S7d): 4.851 and 5.001 and 4.853
[2]; XQ2B 1.25 μM
  Relative mRNA level CXCL10 (Fig. S7d): 71.0232 and 80.5931 and 82.552
  Relative mRNA level IFNB1 (Fig. S7d): 150.862 and 127.331 and 129.696
  Relative mRNA level IL6 (Fig. S7d): 5.209 and 4.534 and 5.634
[2]; XQ2B 2.5 μM
  Relative mRNA level CXCL10 (Fig. S7d): 65.3896 and 90.4406 and 75.1347
  Relative mRNA level IFNB1 (Fig. S7d): 125.32 and 106.736 and 118.852
  Relative mRNA level IL6 (Fig. S7d): 3.096 and 3.258 and 2.284
[2]; XQ2B 5 μM
  Relative mRNA level CXCL10 (Fig. S7d): 49.8503 and 48.6212 and 43.7599
  Relative mRNA level IFNB1 (Fig. S7d): 64.7201 and 61.5772 and 71.2108
[2]; XQ2B 10 μM
  Relative mRNA level CXCL10 (Fig. S7d): 34.1653 and 30.6356 and 36.3338
  Relative mRNA level IFNB1 (Fig. S7d): 33.5888 and 35.227 and 34.4163
  Relative mRNA level IL6 (Fig. S7d): 0.9806 and 0.7505 and 1.24
[2]; XQ2B 20 μM
  Relative mRNA level CXCL10 (Fig. S7d): 10.6053 and 10.5964 and 12.3293
  Relative mRNA level IFNB1 (Fig. S7d): 3.764 and 4.346 and 4.187
[2]; ISD
  IFNB1 mRNA level (Fig. S7c): 15.0362 and 16.705 and 17.0928
[2]; Mock
  IFNB1 mRNA level (Fig. S7c): 1.262 and 0.9081 and 0.8724
[2]; THP1
  dsDNA/ISD-induced IFNB1, CXCL10, IL6 expression: comparable cGAS inhibitory effect as that of XQ2
[3]; ISD+XQ2B
  Cxcl10 mRNA (Fig. S7g): 1166.92 and 1221.79 and 1328.72
  Ifnb1 mRNA (Fig. S7g): 1896.14 and 2591.99 and 2490
  Il6 mRNA (Fig. S7g): 1526.53 and 1838.42 and 1588.85
[3]; XQ2B alone
  Cxcl10 mRNA (Fig. S7g): 2.509 and 2.275 and 2.115
  Ifnb1 mRNA (Fig. S7g): 1.291 and 1.1996 and 1.38
